According to paper PMC3585964, “Tissue Inhibitor of Metalloproteinases-3 Peptides Inhibit Angiogenesis and Choroidal Neovascularization in Mice” (PLoS ONE, 2013):
“Also recorded” adds a separate entry of the source.

Columns and labels:
[1] = molecular target: VEGFR-2 (KDR/Fc chimera) binding to VEGF (Homo sapiens, UniProt P35968); assay: Competitive ELISA, binding of sVEGFR-2/Fc to immobilized VEGF; details: competitive ELISA, 50 ng/ml sVEGFR-2, peptides in 0.5 M Tris-HCl pH 7.5
Procedure: 96 well EIA/RIA strip plates (COSTAR) were coated with 80 ng/ml recombinant VEGF overnight at 4°C, washed and blocked with blocking buffer (1% BSA and 5% sucrose) overnight at 4°C. Series of dilutions were prepared for recombinant proteins representing WT-TIMP-3, NT2:CT3 and N-T3 in PBS or synthetic peptides corresponding to T3-loop 5, T3-loop 6, T3-N or T3-tail peptides in 0.5 M Tris-HCl (pH 7.5). The diluents were mixed with 50 ng/ml recombinant human VEGFR-2 (KDR/Fc chimera, recombinant human VEGFR-1 (Flt-1)/Fc chimera (R&D Systems, Minneapolis, MN) or control human lgG (Sigma Aldrich, St Louis, MO). The mixtures were then added to the VEGF-coated well in a final volume of 100 µL in PBS and incubated for 2 hours at room temperature. Bound VEGFR-2 was detected by HRP-conjugated anti-human lgG(Fc specific) (1∶1000).

PAE/KDR cells [2] = assay: Actin reorganization / membrane ruffle formation (FITC-phalloidin); assay type: cell-based, Porcine; details: peptide at doses as high as 20 µM; 50 ng/ml VEGF 30 min 37°C
Procedure: (§1) Porcine Aortic Endothelial cells expressing VEGFR-2 (PAEKDR) were cultured in Ham’s F-12/DMEM medium supplemented with 10% fetal bovine serum (FBS) (Hyclone), 50 units/ml penicillin and 50 µg/ml streptomycin as described previously. Recombinant human VEGF was a kind gift from Genentech, CA. Antibodies: Anti-Phosphotyrosine clone 4G10 (Upstate Biotechnology/Millipore, Billerica, MA), monoclonal anti-Flk-1 (A-3) (Santa Cruz Biotechnology, Santacruz, CA), MAPK and phospho-specific MAPK antibodies (Calbiochem-Novabiochem Corporation/EMD chemicals, Gibbstown, NJ).
Subconfluent cells cultured on Falcon culture slides (BD Biosciences) were serum-starved overnight and stimulated for 30 min at 37°C with 50 ng/ml VEGF or control buffer. The cells were fixed with 3.7% paraformaldehyde in PBS for 30 min at 4°C and permeabilized with 0.2% Triton X-100 for 20 min at room temperature. Following rinsing with PBS, the cells were incubated with fluorescein isothiocyanate (FITC)-labeled phalloidin in PBS (0.66 µg/ml, Sigma Aldrich, St. Louis, MO) for 20 min at room temperature, washed with PBS and analyzed by fluorescence microscopy.
Figure 5 Effects of TIMP-3 peptides on VEGF-mediated actin reorganization. TIMP-3 loop 6 and tail but not loop 5 and N-peptide inhibit VEGF-induced actin reorganization in PAE/KDR cells. […]

PAE/KDR cells [3] = assay: VEGF-induced endothelial cell proliferation; assay type: cell-based, Porcine; details: 1 µM peptide, 5 days; for Effect on VEGF-induced endothelial cell proliferation (in words): VEGF 5 ng/ml, ** p<0.01 vs VEGF control in figure legend
Procedure: as §1
Cells were seeded at a density of 2000 cells/well in 24 well culture plates and cultured for 24 h in growth medium. After synchronization overnight in serum-free medium supplemented with 0.1% BSA, the cells were stimulated with or without VEGF […] in the presence or absence of the indicated concentrations of TIMP-3 peptides. After a 5-day incubation, cells were trypsinized and counted using a Coulter particle counter.
Figure 6 Effects of TIMP-3 peptides on VEGF-mediated EC proliferation. […] Serum-starved cells were incubated with or without VEGF (5 ng/ml) in the presence or absence of the 1 µM of TIMP-3 peptides for 5 days.

Sequence of VEGFR-2 (KDR/Fc chimera) binding to VEGF (P35968 with tags, fused parts or gaps limits assumed): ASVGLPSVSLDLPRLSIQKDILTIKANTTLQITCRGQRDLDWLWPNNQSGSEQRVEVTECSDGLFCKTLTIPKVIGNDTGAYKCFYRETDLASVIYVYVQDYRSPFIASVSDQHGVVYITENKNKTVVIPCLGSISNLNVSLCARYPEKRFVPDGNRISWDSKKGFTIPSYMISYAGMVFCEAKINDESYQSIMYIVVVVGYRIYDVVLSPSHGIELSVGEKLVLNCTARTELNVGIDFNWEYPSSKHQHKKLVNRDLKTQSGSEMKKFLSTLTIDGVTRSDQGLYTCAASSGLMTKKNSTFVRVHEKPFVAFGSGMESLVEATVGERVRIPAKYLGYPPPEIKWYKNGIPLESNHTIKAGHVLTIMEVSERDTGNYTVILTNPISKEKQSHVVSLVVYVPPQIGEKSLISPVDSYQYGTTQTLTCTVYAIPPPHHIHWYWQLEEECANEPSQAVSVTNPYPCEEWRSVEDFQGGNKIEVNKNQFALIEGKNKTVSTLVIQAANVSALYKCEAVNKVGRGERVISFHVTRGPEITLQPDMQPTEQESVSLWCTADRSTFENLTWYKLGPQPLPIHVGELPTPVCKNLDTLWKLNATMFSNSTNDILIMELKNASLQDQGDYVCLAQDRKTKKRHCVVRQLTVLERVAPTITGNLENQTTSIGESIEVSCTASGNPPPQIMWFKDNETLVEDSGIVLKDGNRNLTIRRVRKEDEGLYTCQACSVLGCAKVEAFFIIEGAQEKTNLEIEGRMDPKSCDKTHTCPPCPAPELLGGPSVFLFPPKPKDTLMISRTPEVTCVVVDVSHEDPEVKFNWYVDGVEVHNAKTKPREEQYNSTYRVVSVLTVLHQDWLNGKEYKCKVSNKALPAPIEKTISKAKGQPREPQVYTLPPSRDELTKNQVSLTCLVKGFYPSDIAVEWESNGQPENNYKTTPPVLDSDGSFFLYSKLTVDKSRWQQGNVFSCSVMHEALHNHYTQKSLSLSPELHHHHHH

Sequence	Effect of synthetic peptides on VEGF binding to sVEGFR-2 (in words) [1]	Effect of synthetic peptides on VEGF binding to sVEGFR-2 (in words) ([1]; listed as Loop5)	Inhibition of VEGF-stimulated membrane ruffle formation (PAE/KDR cells [2])	Possible induction of endothelial cell proliferation (PAE/KDR cells [3])	Effect on VEGF-induced endothelial cell proliferation (in words) (PAE/KDR cells [3])
KIKSCYYLPCFVTS [T3-loop 5]	did not show any inhibitory activity	have no effect on sVEGFR-2-VEGF complexes	neither T3-loop 5 nor T3-N peptide at doses as high as 20 µM inhibited the formation of membrane ruffles	may in fact induce proliferation of endothelial cells	neither T3-loop 5 nor T3-N peptide showed inhibitory properties
RGFTKMPHVQYIHTEASESL [T3-N peptide]	did not show any inhibitory activity; also recorded: have no effect on sVEGFR-2-VEGF complexes		neither T3-loop 5 nor T3-N peptide at doses as high as 20 µM inhibited the formation of membrane ruffles	may in fact induce proliferation of endothelial cells	neither T3-loop 5 nor T3-N peptide showed inhibitory properties
